In patent US5681823A, “P^1, P^4 -dithio-P^2 -P^3 -monochloromethylene 5', 5'"-diadenosine P^1, P^4 -tetraphosphate as antithrombotic agent” (PRP Inc., priority 1996, dated 1997):
Where two headings read alike, the source gives them in different places.

Experiments:
Type in all cases: cell-based, human
platelet aggregation = test: Platelet aggregation induced by ADP and agonists other than ADP; details: for IC50: Homo sapiens, Platelet; for effect on collagen-induced aggregation: agonist collagen, in words; for effect on ristocetin-induced platelet aggregation: agonist ristocetin; for effect on thrombin-induced platelet aggregation: agonist thrombin
Protocol: (§1) Unless otherwise provided below, the experimental procedures were performed according to the procedures provided in U.S. Pat. No. 5,049.550 (Zamecnik '550), the entire contents of which are incorporated herein by reference. Some alternative procedures (e.g., release reaction, PF3 assays) and a number of additional studies also are provided (e.g., cytoplasmic calcium mobilization, fibrinogen binding site, agonists other than ADP, platelet cAMP and distribution of CHCl-AP4 A into blood components). Blood was collected in a 0.1 volume of 3.8% sodium citrate from healthy human volunteers who had abstained from antiplatelet agents for at least 10 days. Platelet rich plasma (PRP) was separated by a gradual centrifugation and adjusted to 3.3×10^8 platelets per ml plasma. PRP has been utilized in the Examples unless otherwise stated.
The release reaction appears to be a unique response following platelet activation. ADP, among several platelet constituents, appears to play an important role in the enhancement of activation. We have examined the role of ADP that is released in platelet aggregation induced by other agonists including arachidonic acid, collagen, epinephrine, thrombin and ristocetin. Platelet aggregability induced by a given concentration of agonists was approximately 60-80% in absence of agents. […] This finding supports the above-described observations of the inhibitory effects of the agents on the release reaction.

[1] = system: ADP and collagen induced platelet aggregation; test: Platelet aggregation in lumiaggregometer (ADP or collagen); details: for IC50: Homo sapiens, Platelet, lumiaggregometer
Protocol: (§2) The effects of thio-CHCl-AP4 A and the reference agent on both ADP and collagen induced platelet aggregation, and release reaction were tested in a lumiaggregometer. Normal human PRP was separated from sodium […] anticoagulated (0.38%) blood. Platelet aggregation and release reaction induced by 5 μM ADP or 1 μg collagen/ml. The lumiaggregometer was equipped to assay both platelet aggregation and the luciferase reaction of ATP simultaneously a) in the absence of agent (control); and b) in the presence of various concentrations of thio-CHCl-AP4 A or CHCl-AP4 A. The measured amount of ATP released from the activated platelets by the agonist represents the release reaction. The luminescence produced by the luciferin-luciferase reaction was linear with respect to the amount of ATP released.

[2] = system: ADP-induced platelet aggregation; test: Time-dependent effects on ADP-induced aggregation (stability of the agents by functional assay in PRP); details: for ADP-induced aggregation: 10 μM ADP; for stability of inhibitory effect / agent in PRP: 37° C., up to 3 hours, in words
Protocol: as §1
To observe the stability of the agents by functional assay, PRP was incubated with 2.51 μM thio-CHCl-AP4 A or 5 μM CHCl-AP4 A at 37° C. for 3 hours. The concentrations of inhibiting agents used in this experiment were relatively low, especially for the thio compound. Samples taken at the times indicated were tested for ADP-induced (10 μM) aggregation.

platelet cAMP level = test: Level of intracellular platelet cAMP (etheno-cAMP, HPLC); details: for platelet cAMP level: 37° C., 5 min, control 31.6; for effect on the platelet cAMP level: in words
Protocol: as §1
The inhibitory effect of cAMP on platelet aggregation has been known as a counteraction of calcium ion mobilization. Accordingly, the inhibitory effects of the agents with respect to a cAMP mediated mechanism was tested. PRP was incubated with saline (control), agents (at 20 μM and 100 μM), or forskolin (10 μM) at 37° C. for 5 min. After incubation, extracts were made using Ba(OH)2 and ZnSO4. Cyclic AMP in the extracts was converted into the etheno-cAMP derivative, and the levels were estimated by HPLC using a fluorescence detector (W. Wojcik et al., J. Cyclic Nucleotide Res. 7:27-35 (1981)). The level of cAMP in an unknown extract was determined by extrapolation from a standard graph. A linear relationship between the cAMP level in the extracted samples and fluorescence detection was observed. […] However, this increase may not be a specific effect. Although adenosine contamination in the tested AP4 A agents was not detected, it is possible that either cellular adenosine nucleotide metabolic products or contaminated adenosine in the tested agents may be responsible for the elevated cAMP level.

[3] = system: Platelet release reaction; test: Platelet release reaction (ATP, luciferin-luciferase, lumiaggregometer); details: for IC50: Homo sapiens, Platelet, lumiaggregometer
Protocol: as §2

Platelet Factor 3 (PF3) = test: Platelet factor 3 (PF3) activation, Stypven clotting time; details: for Clotting Time (Stypven), ADP-stimulated PF3 activity / Net Change of clotting time / activity at 10 µM: 10 μM agent, 10 μM ADP; for Clotting Time (Stypven), ADP-stimulated PF3 activity: mean of two, baseline 45.8, saline control 38.9; for Net Change of clotting time: saline control -6.9; for activity at 10 µM: Homo sapiens, Platelet, 5 min, saline control 100, read-out: % Change of clotting time
Protocol: PF3 activity of the platelets is enhanced by ADP stimulation and measured by the Stypven clotting time (P. Zamecnik et al., PNAS (USA) 89:2370-2373 (1992)). The data represent a mean of two experiments. Fresh normal human platelet-rich plasma (3×10^8 platelets per ml) was preincubated in the presence or absence of the agents (10 μM) at 37° C. for 5 min and then tested for PF3 activity of the platelets that was stimulated by 10 μM ADP.

[4] = system: ADP-induced platelet aggregability; test: Ability to aggregate of platelets exposed previously to the agents, resuspended in inhibitor-free plasma; details: for activity at 25 µM: preincubated 25 μM agent
Protocol: as §1
We believe that the inhibition mechanism of AP4 A analogues involves competing with ADP for binding to the platelet purinoceptor. To test the stability and inhibitory effects of the bound agent, platelet-rich plasma anticoagulated with ACD solution was preincubated with 25 μM thio-CHCl-AP4 A or 50 μM CHCl-AP4 A at 22° C. for 30 minutes. Platelets isolated by gel-column filtration (2×10^8 cells/ml) or centrifugation (3×10^8cells/ml) were resuspended in the inhibitor-free plasma and ADP-induced aggregability was measured. The values represent a mean of three experiments for the series of gel-filtration separation and a mean of two experiments for the centrifugation separation.

[5] = agonist Arachidonic Acid (1 mM)

| Compound | IC50 (platelet aggregation; agonist ADP (5 μM)) | IC50 (platelet aggregation; [5]) | IC50 (platelet aggregation; agonist Collagen (μg)) | IC50 (platelet aggregation; agonist Epinephrine (10 μM)) | effect on collagen-induced aggregation (platelet aggregation) | effect on ristocetin-induced platelet aggregation (platelet aggregation) | effect on thrombin-induced platelet aggregation (platelet aggregation) | IC50 ([1]; agonist 5 μM ADP) | IC50 ([1]; agonist collagen 1 μg/ml) | stability of inhibitory effect / agent in PRP [2] | platelet cAMP level (platelet cAMP level; 20 μM agent) | effect on the platelet cAMP level (platelet cAMP level; 20 μM) | platelet cAMP level (platelet cAMP level; 100 μM agent) | effect on the platelet cAMP level (platelet cAMP level; 100 μM) | IC50 ([3]; agonist 5 μM ADP) | IC50 ([3]; agonist collagen 1 μg/ml) | Clotting Time (Stypven), ADP-stimulated PF3 activity (Platelet Factor 3 (PF3)) | Net Change of clotting time (Platelet Factor 3 (PF3)) | activity at 10 µM (Platelet Factor 3 (PF3)) | further results |
| --- | --- | --- | --- | --- | --- | --- | --- | --- | --- | --- | --- | --- | --- | --- | --- | --- | --- | --- | --- | --- |
| Nc1ncnc2c1ncn2[C@@H]1O[C@H](COP(O)(=S)OP(=O)(O)C(Cl)P(=O)(O)OP(O)(=S)OC[C@H]2O[C@@H](n3cnc4c(N)ncnc43)[C@H](O)[C@@H]2O)[C@@H](O)[C@H]1O (stereo partly drawn) [Thio-CHCl-AP4 A, P^1, P^4 -dithio -P^2 -P^3 monochloromethylene 5', 5'" diadenosine P^1, P^4 -tetraphosphate] | 0.81 µM | 9.12 µM | 9 µM | 5.25 µM | detectable inhibitory effect | Neither thio-CHCl-AP4 A nor CHCl-AP4 A affected | Neither thio-CHCl-AP4 A nor CHCl-AP4 A affected | 1.6 µM | 9 µM | very stable for at least a 3 hour period | 28.6 nM | no effect | 54.4 nM | moderate increase | 0.7 µM | 1.7 µM | 44.5 s | -1.3 | 18.8% | ADP-induced aggregation ([2]; 2.5 μM agent, 0 min in PRP at 37° C., without agent 82%): 21%; ADP-induced aggregation ([2]; 2.5 μM agent, 60 min in PRP at 37° C., without agent 69%): 7%; ADP-induced aggregation ([2]; 2.5 μM agent, 120 min in PRP at 37° C., without agent 59%): 5%; ADP-induced aggregation ([2]; 2.5 μM agent, 180 min in PRP at 37° C., without agent 43%): 6%; inhibitory effect on ADP-stimulated PF3 activity (Platelet Factor 3 (PF3); compared to CHCl-AP4 A, in words): significantly greater than that of the non-thio reference agent; activity at 25 µM ([4]; Homo sapiens, Platelet, 0.5 h, centrifugation, 20 μM ADP, 22° C., 30 min, mean of two, read-out: Aggregability (% of control)): 67%; activity at 25 µM ([4]; Homo sapiens, Platelet, 0.5 h, gel-filtration, 10 μM ADP, 22° C., 30 min, mean of three, read-out: Aggregability (% of control)): 78%; inhibition in the ability to aggregate following exposure to ADP ([4]; preincubated 25 μM thio-CHCl-AP4 A): 22-33% |
| Nc1ncnc2c1ncn2[C@@H]1O[C@H](COP(=O)(O)OP(=O)(O)C(Cl)P(=O)(O)OP(=O)(O)OC[C@H]2O[C@@H](n3cnc4c(N)ncnc43)[C@H](O)[C@@H]2O)[C@@H](O)[C@H]1O (stereo partly drawn) [CHCl-AP4 A] | 3.28 µM | 19 µM | > 100 µM | 24 µM | unaffected | Neither thio-CHCl-AP4 A nor CHCl-AP4 A affected | Neither thio-CHCl-AP4 A nor CHCl-AP4 A affected | 14 µM | > 100 µM | becomes unstable when it is kept in PRP more than 60 minutes at 37 °C | 30.6 nM | no effect | 56.7 nM | moderate increase | 4.5 µM | 35 µM | 43.1 s | -2.7 | 39.1% | effect on collagen-induced aggregation ([1]; agonist collagen, in words): not inhibited; ADP-induced aggregation ([2]; 5 μM agent, 0 min in PRP at 37° C., without agent 82%): 13%; ADP-induced aggregation ([2]; 5 μM agent, 60 min in PRP at 37° C., without agent 69%): 31%; ADP-induced aggregation ([2]; 5 μM agent, 120 min in PRP at 37° C., without agent 59%): 47%; ADP-induced aggregation ([2]; 5 μM agent, 180 min in PRP at 37° C., without agent 43%): 42%; effect on collagen-induced release reaction ([3]; agonist collagen, in words): inhibited; activity at 50 µM ([4]; Homo sapiens, Platelet, 0.5 h, centrifugation, 20 μM ADP, preincubated 50 μM agent, 22° C., 30 min, mean of two, read-out: Aggregability (% of control)): 92%; inhibition in the ability to aggregate following exposure to ADP ([4]; preincubated 50 μM CHCl-AP4 A): 8% |
